# Reference: patent US12201694B2, “Hydrogel compositions” (Hyderabad Eye Institute, priority 2018, dated 2025)
# Assays:
# C. albicans ATCC90028 = assay: Minimal inhibitory concentration (MIC), no visible growth after 16 h; type: cell-based, Candida albicans
# Protocol: (§1) C. albicans cells, laboratory strain SC5314 or ATCC90028, were cultured on solid BHI (Oxoid) medium at 37° C. for 24 hours and stored at 4° C. for up to one month. Prior to experiments, a colony of C. albicans was sub-cultured into liquid BHI medium overnight at 37° C. Overnight cultures of C.albicans were adjusted to an optical density at 600 nm of 0.1 and incubated with Amphotericin polymers, which were serially diluted 1:2 from 2500-2.44 μg/ml, for 16 hours in a 96 well plate. The concentration of polymer at which there was no visible growth was determined to be the MIC. C.albicans (Robin) ATCC200955, C.tropicalis ATCC200956, A.flavus ATCC16883 and F. keratoplasticum ATCC36031 were similarly cultured on solid Sabrauds (Oxoid) medium at 37° C. for 24 hours and stored at 4° C. for up to one month. Prior to experiments, colonies were sub-cultured into liquid Sabrauds medium overnight at 37° C. All liquid cultures were static apart from A.flavus which was incubated shaking at 100 rpm.
# C. albicans SC5314 = assay: as above; type: cell-based, Candida albicans
# Protocol: as §1
# [1] = test system: F. keratoplasticum ATCC36031; assay: Minimal inhibitory concentration (MIC); type: cell-based, Fusarium keratoplasticum; settings: F. keratoplasticum ATCC 36031
# Protocol: as §1
# C. albicans ATCC200955 = assay: Minimal inhibitory concentration (MIC); type: cell-based, Candida albicans; settings: C. albicans ATCC200955 (Amp-B non-sensitive)
# Protocol: as §1
# [2] = physiological pH; well known; cited from earlier work
# [3] = literature reference [19]; cited from earlier work
# C. tropicalis ATCC200956 = assay: Minimal inhibitory concentration (MIC); type: cell-based, Candida tropicalis; settings: C. tropicalis ATCC200956 (Amp-B non-sensitive)
# Protocol: as §1, with “Overnight cultures of C.albicans were adjusted to an optical density at 600 nm of 0.1 and incubated with Amphotericin polymers, which were serially diluted 1:2 from 2500-2.44 μg/ml, for 16 hours in a 96 well plate.” left out
# A. flavus ATCC16883 = assay: Minimal inhibitory concentration (MIC); type: cell-based, Aspergillus flavus; settings: A. flavus ATCC 16883
# Protocol: as §1
# [4] = from weight MIC and molar density
smiles,measurement,setting,value
C[C@@H]1[C@H](O)[C@@H](C)/C=C/C=C/C=C/C=C/C=C/C=C/C=C/[C@H](O[C@@H]2O[C@H](C)[C@@H](O)[C@H](N)[C@@H]2O)C[C@@H]2O[C@](O)(C[C@@H](O)C[C@@H](O)[C@H](O)CC[C@@H](O)C[C@@H](O)CC(=O)O[C@H]1C)C[C@H](O)[C@H]2C(=O)O [Amphotericin B],Weight based MIC,C. albicans ATCC90028; C. albicans ATCC90028,0.5 µg·mL
same,MIC against ATCC90028,"C. albicans ATCC90028; C. albicans ATCC90028, 16 hours",4 µg/mL
same,Molar MIC,"C. albicans ATCC90028; C. albicans ATCC90028, from weight MIC and molar density",4800 µM
same,Weight based MIC,C. albicans SC5314; C. albicans SC5314,0.4 µg·mL
same,MIC against SC5314,"C. albicans SC5314; C. albicans SC5314, 16 hours",0.4 µg/mL
same,Molar MIC,"C. albicans SC5314; C. albicans SC5314, from weight MIC and molar density",500 µM
same,Weight based MIC,[1],0.2 µg·mL
same,Molar MIC,[1]; [4],250 µM
same,Weight based MIC,C. albicans ATCC200955,>2500 µg·mL
same,solubility in water and saline solution,[2],insoluble
same,MIC for amphotericin B,[3],4.68 to 150 µM
same,Weight based MIC,C. tropicalis ATCC200956,>2500 µg·mL
same,Weight based MIC,A. flavus ATCC16883,1.5 µg·mL
same,Molar MIC,A. flavus ATCC16883; [4],1800 µM
